Data published in patent US4357331A, “7αMethoxycephalosporin derivatives” (Meiji Seika Kaisha, Ltd., priority 1978, dated 1982).
Converted amounts (≈) assume the structure as drawn. Like-named read-outs stand apart in the source and are kept apart here.

How the values were obtained:
[1] = test system: Pseudomonas aeruginosa IFO 3080; test: MIC, minimum inhibitory concentration (nutrient agar, 37° C., 20 hours); type: cell-based; conditions: IFO3080
Proteus morganii = test: as above; type: cell-based; conditions: Morganella morganii
Escherichia coli 255 = test: as above; type: cell-based
[2] = test system: Serratia marcescens No. 1; test: as above; type: cell-based; conditions: read-out: MIC (minimum inhibitory concentration)
Klebsiella pneumoniae = test: as above; type: cell-based; conditions: read-out: MIC (minimum inhibitory concentration)
[3] = test system: Staphylococcus aureus 209p; test: as above; type: cell-based
Citrobacter freundii = test: as above; type: cell-based
Escherichia coli No. 29 = test: in vivo antibacterial activity (ED50) in mice challenged intraperitoneally with E. coli No. 29; parameters: species or system Escherichia coli No. 29; Male ddY mice; conditions: male ddY mice, fatality over a week, Probit method
[4] = test system: Bacillus anthracis No. 119; test: microbe, parasite or virus in culture; type: cell-based; conditions: NO.119, 20 h, read-out: MIC (minimum inhibitory concentration)
[5] = Serratia marcescens No. 1, 37° C., 20 hours

| SMILES | MIC [1] | MIC (Proteus morganii) | MIC (Escherichia coli 255) | MIC ([2]; Serratia marcescens, NO.1, 20 h) | MIC (Klebsiella pneumoniae; 20 h) | MIC [3] | MIC (Citrobacter freundii) | ED50 with Escherichia coli No. 29 (Escherichia coli No. 29; oral) | ED50 with Escherichia coli No. 29 (Escherichia coli No. 29; subcutaneous) | MIC [4] | MIC [2, 5] | MIC (Klebsiella pneumoniae; 37° C., 20 hours) |
| --- | --- | --- | --- | --- | --- | --- | --- | --- | --- | --- | --- | --- |
| CO[C@@]1(NC(=O)Cc2cccs2)C(=O)N2C(C(=O)O)=C(COC(N)=O)CS[C@@H]21 [Cefoxitin, cefoxitin, reference compound] | 100 µg/mL (≈ 234 µM) | 6.25 µg/mL (≈ 14.6 µM) | 50 µg/mL (≈ 117 µM) | 3.13 µg/mL (≈ 7.32 µM) | 3.13 µg/mL (≈ 7.32 µM) | 1.56 µg/mL (≈ 3.65 µM) | 50 µg/mL (≈ 117 µM) | > 5.0 mg/mouse | 0.43 mg/mouse | 3.13 µg/mL (≈ 7.32 µM) |  |  |
| CC1=C(C(=O)O)N2C(=O)[C@@H](NC(=O)[C@H](N)c3ccccc3)[C@H]2SC1 [Cephalexin, cephalexin, reference compound] |  |  |  |  |  |  |  | 1.60 mg/mouse |  |  |  |  |
| COC(=O)C(N)CSCC(=O)NC1(OC)C(=O)N2C(C(=O)OC(C)OC(C)=O)=C(CSc3nnnn3C)CSC21 (stereo not drawn) [Example 18, 1-acetoxyethyl 7β-(2D-2-amino-2-methoxycarbonyl)ethylthioacetamido-7α-methoxy-3-(1-methyl-1H-tetrazol-5-yl)thiomethyl-3-cephem-4-carboxylate] |  |  |  |  |  |  |  | 0.36 mg/mouse | 0.24 mg/mouse |  |  |  |
| COC1(NC(=O)CSCCC(N)C(=O)O)C(=O)N2C(C(=O)[O-])=C(C[n+]3ccc(C(N)=O)cc3)CSC21 (stereo not drawn) [Ex. 12, 7β-(3DL-3-amino-carboxy)propylthioacetamido-7α-methoxy-3-(p-carbamoylpyridinium)methyl-3-cephem-4-carboxylic acid] | 6.25 µg/mL (≈ 11.6 µM) | 12.5 µg/mL (≈ 23.2 µM) | 3.13 µg/mL (≈ 5.8 µM) |  |  | 6.25 µg/mL (≈ 11.6 µM) | 25 µg/mL (≈ 46.3 µM) |  |  | 1.56 µg/mL (≈ 2.89 µM) | 12.5 µg/mL (≈ 23.2 µM) | 6.25 µg/mL (≈ 11.6 µM) |
| COC1(NC(=O)CSCCN)C(=O)N2C(C(=O)O)=C(CSc3nnnn3C)CSC21 (stereo not drawn) [Ex. 1, 7β-aminoethylthioacetamido-7α-methoxy-3-(1-methyl-1H-tetrazol-5-yl)thiomethyl-3-cephem-4-carboxylic acid] | 25 µg/mL (≈ 52.6 µM) | 6.25 µg/mL (≈ 13.1 µM) | 6.25 µg/mL (≈ 13.1 µM) |  |  | 1.56 µg/mL (≈ 3.28 µM) | 1.56 µg/mL (≈ 3.28 µM) |  |  | 0.39 µg/mL (≈ 0.82 µM) | 3.13 µg/mL (≈ 6.58 µM) | 3.13 µg/mL (≈ 6.58 µM) |
| COC1(NC(=O)CSCC(N)C(=O)O)C(=O)N2C(C(=O)OC(C)OC(=O)C(C)(C)C)=C(CSc3nnnn3C)CSC21 (stereo not drawn) [Example 19, 1-pivaloyloxyethyl 7β-(2D-2-amino-2-carboxy)ethylthioacetamido-7α-methoxy-3-(1-methyl-1H-tetrazol-5-yl)thiomethyl-3-cephem-4-carboxylate] |  |  |  |  |  |  |  | 0.25 mg/mouse | 0.17 mg/mouse |  |  |  |
| COC1(NC(=O)CSCCNC(N)=O)C(=O)N2C(C(=O)O)=C(CSc3nnnn3C)CSC21 (stereo not drawn) [Ex. 2, 7β-ureidoethylthioacetamido-7α-methoxy-3-(1-methyl-1H-tetrazol-5-yl)thiomethyl-3-cephem-4-carboxylic acid] | 25 µg/mL (≈ 48.2 µM) | 3.13 µg/mL (≈ 6.04 µM) | 12.5 µg/mL (≈ 24.1 µM) |  |  | 3.13 µg/mL (≈ 6.04 µM) | 25 µg/mL (≈ 48.2 µM) |  |  | 0.78 µg/mL (≈ 1.5 µM) | 3.13 µg/mL (≈ 6.04 µM) | 1.56 µg/mL (≈ 3.01 µM) |
| CCOC(=O)C(N)CSCC(=O)NC1(OC)C(=O)N2C(C(=O)OCOC(=O)C(C)(C)C)=C(CSc3nnnn3C)CSC21 (stereo not drawn) [Example 17, pivaloyloxymethyl 7β-(2D-2-amino-2-ethoxycarbonyl)ethylthioacetamido-7α-methoxy-3-(1-methyl-1H-tetrazol-5-yl)thiomethyl-3-cephem-4-carboxylate] |  |  |  |  |  |  |  | 0.86 mg/mouse | 0.046 mg/mouse |  |  |  |
| COC1(NC(=O)CSCCC(N)C(=O)O)C(=O)N2C(C(=O)O)=C(CSc3nnnn3C)CSC21 (stereo not drawn) [Ex. 11, sodium 7β-(3D-3-amino-3-carboxy)propylthioacetamido-7α-methoxy-3-(1-methyl-1H-tetrazol-5-yl)thiomethyl-3-cephem-4-carboxylate] | 100 µg/mL | 3.13 µg/mL | 0.78 µg/mL |  |  | 3.13 µg/mL | 25 µg/mL |  |  | 0.2 µg/mL | 0.78 µg/mL | 1.56 µg/mL |
